According to patent US10906915B2, “Substituted pyrazoloazepin-4-ones and their use as phosphodiesterase inhibitors” (LEO Pharma A/S, priority 2016, dated 2021):

The compounds below were run against human PDE4D catalytic domain (UniProt no. Q08499) (Homo sapiens (Human), UniProt Q08499) (assay: PDE4 assay (TR-FRET, FAM-cAMP cleavage)). Conditions: human PDE4D catalytic domain; molar concentration giving 50% inhibition of substrate cleavage; read-out: PDE4 IC50 range.
Assay type: biochemical
In short: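 PDE4D catalytic domain ([…]) was incubated with unlabelled cAMP plus FAM-cAMP and titrated compound, stopped with binding buffer of metal-ion nanoparticles and Tb donor. AMP generation read by TR-FRET; IC50 as 50% inhibition of cleavage versus controls, reported as nM ranges.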

Chain of human PDE4D catalytic domain (Q08499 380-740 limits assumed): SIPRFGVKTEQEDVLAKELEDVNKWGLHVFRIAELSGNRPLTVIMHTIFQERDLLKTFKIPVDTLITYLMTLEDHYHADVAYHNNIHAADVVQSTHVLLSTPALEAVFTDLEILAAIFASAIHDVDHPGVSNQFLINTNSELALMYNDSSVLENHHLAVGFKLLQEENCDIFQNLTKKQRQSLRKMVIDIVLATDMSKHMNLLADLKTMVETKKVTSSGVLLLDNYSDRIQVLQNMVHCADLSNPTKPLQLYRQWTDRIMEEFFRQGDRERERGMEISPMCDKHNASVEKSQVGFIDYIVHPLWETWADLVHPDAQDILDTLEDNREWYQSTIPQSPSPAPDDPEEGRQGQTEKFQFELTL

Question: `CCc1nn(CCCOC(=O)c2ccc(Cl)cc2OC)c2c1C(=O)NCC1(CCOCC1)C2` [Example 92, 3-(3-ethyl-4-oxo-spiro[6,8-dihydro-5H-pyrazolo[4,3-c]azepine-7,4′-tetrahydropyran]-1-yl)propyl 4-chloro-2-methoxy-benzoate] was tested. Which IC50 did it give?
Answer: The IC50 was less than 100 nM.

Question: With `CCc1nn(C[C@@H](C)COC(=O)c2cc(C(F)(F)F)ccc2C)c2c1C(=O)NCC1(CCOCC1)C2` [Example 218, [(2R)-3-(3-ethyl-4-oxo-spiro[6,8-dihydro-5H-pyrazolo[4,3-c]azepine-7,4′-tetrahydropyran]-1-yl)-2-methyl-propyl] 2-methyl-5-(trifluoromethyl)benzoate] as the compound, how does the IC50 read?
Answer: Its IC50 is less than 100 nM.

Question: Which IC50 does the source give for `CCc1nn(C[C@@H](C)COC(=O)c2ccccc2S(C)(=O)=O)c2c1C(=O)NCC1(CCOCC1)C2` [Example 214, [(2R)-3-(3-ethyl-4-oxo-spiro[6,8-dihydro-5H-pyrazolo[4,3-c]azepine-7,4′-tetrahydropyran]-1-yl)-2-methyl-propyl] 2-methylsulfonylbenzoate] here?
Answer: The IC50 was less than 100 nM.

Question: `CCc1nn(C[C@@H](C)COC(=O)c2ccc(C)cc2C)c2c1C(=O)NCC1(CCOCC1)C2` [Example 170, [(2R)-3-(3-ethyl-4-oxo-spiro[6,8-dihydro-5H-pyrazolo[4,3-c]azepine-7,4′-tetrahydropyran]-1-yl)-2-methyl-propyl] 2,4-dimethylbenzoate] was tested. Which IC50 did it give?
Answer: The IC50 was less than 100 nM.

Question: With `CCc1nn(CCCOC(C)=O)c2c1C(=O)NCC1(CCOCC1)C2` [Example 6, 3-(3-ethyl-4-oxo-spiro[6,8-dihydro-5H-pyrazolo[4,3-c]azepine-7,4′-tetrahydropyran]-1-yl)propyl acetate] as the compound, how does the IC50 read?
Answer: The IC50 was 100 to 500 nM.

Question: `CCc1nn(C[C@@H](C)COC(=O)c2ccc(OC)c(C)c2)c2c1C(=O)NCC1(CCOCC1)C2` [Example 186, [(2R)-3-(3-ethyl-4-oxo-spiro[6,8-dihydro-5H-pyrazolo[4,3-c]azepine-7,4′-tetrahydropyran]-1-yl)-2-methyl-propyl] 4-methoxy-3-methyl-benzoate] was tested. Which IC50 did it give?
Answer: The IC50 was less than 100 nM.

Question: With `CCc1nn(C[C@@H](C)COC(=O)c2ccc(S(=O)(=O)N(C)C)cc2)c2c1C(=O)NCC1(CCOCC1)C2` [Example 4, [(2R)-3-(3-Ethyl-4-oxo-spiro[6,8-dihydro-5H-pyrazolo[4,3-c]azepine-7,4′-tetrahydro-pyran]-1-yl)-2-methyl-propyl] 4-(dimethylsulfamoyl)benzoate] as the compound, how does the IC50 read?
Answer: The IC50 was less than 100 nM.

Question: With `CCc1nn(CCCOC(=O)c2cccc(C(=O)N3CCN(C)CC3)c2)c2c1C(=O)NCC1(CCOCC1)C2` [Example 158, 3-(3-ethyl-4-oxo-spiro[6,8-dihydro-5H-pyrazolo[4,3-c]azepine-7,4′-tetrahydropyran]-1-yl)propyl 3-(4-methylpiperazine-1-carbonyl)benzoate] as the compound, how does the IC50 read?
Answer: Its IC50 is 100 to 500 nM.

Question: `CCc1nn(C[C@@H](C)COC(=O)c2cc(F)ccc2C)c2c1C(=O)NCC1(CCOCC1)C2` [Example 173, [(2R)-3-(3-ethyl-4-oxo-spiro[6,8-dihydro-5H-pyrazolo[4,3-c]azepine-7,4′-tetrahydropyran]-1-yl)-2-methyl-propyl] 5-fluoro-2-methyl-benzoate] was tested. Which IC50 did it give?
Answer: The IC50 was less than 100 nM.

Question: Which IC50 does the source give for `CCc1nn(CCCOC(=O)c2ccc(OC)cc2Cl)c2c1C(=O)NCC1(CCOCC1)C2` [Example 89, 3-(3-ethyl-4-oxo-spiro[6,8-dihydro-5H-pyrazolo[4,3-c]azepine-7,4′-tetrahydropyran]-1-yl)propyl 2-chloro-4-methoxy-benzoate] here?
Answer: The IC50 was less than 100 nM.

Question: For `CCc1nn(C[C@@H](C)COC(=O)c2ccc(C(=O)N3CCOCC3)cc2)c2c1C(=O)NCC1(CCOCC1)C2` [Example 260, [(2R)-3-(3-ethyl-4-oxo-spiro[6,8-dihydro-5H-pyrazolo[4,3-c]azepine-7,4′-tetrahydropyran]-1-yl)-2-methyl-propyl] 4-(morpholine-4-carbonyl)benzoate], which IC50 is on record?
Answer: The IC50 was less than 100 nM.

Question: How did the IC50 turn out when `CCc1nn(CCCOC(=O)c2ccc(C)cc2F)c2c1C(=O)NCC1(CCOCC1)C2` [Example 33, 3-(3-ethyl-4-oxo-spiro[6,8-dihydro-5H-pyrazolo[4,3-c]azepine-7,4′-tetrahydropyran]-1-yl)propyl 2-fluoro-4-methyl-benzoate] was run?
Answer: The IC50 was less than 100 nM.

Question: For `CCc1nn(CCCOC(=O)C2CC(F)(F)C2)c2c1C(=O)NCC1(CCOCC1)C2` [Example 14, 3-(3-ethyl-4-oxo-spiro[6,8-dihydro-5H-pyrazolo[4,3-c]azepine-7,4’-tetrahydropyran]-1-yl)propyl 3,3-difluorocyclobutane-carboxylate], which IC50 is on record?
Answer: The IC50 was 100 to 500 nM.

Question: `CCc1nn(CCCOC(=O)c2cc(C(F)(F)F)ccc2F)c2c1C(=O)NCC1(CCOCC1)C2` [Example 112, 3-(3-ethyl-4-oxo-spiro[6,8-dihydro-5H-pyrazolo[4,3-c]azepine-7,4′-tetrahydropyran]-1-yl)propyl 2-fluoro-5-(trifluoromethyl)benzoate] was tested. Which IC50 did it give?
Answer: The IC50 was less than 100 nM.

Question: Which IC50 does the source give for `CCc1nn(CCCOC(=O)c2ccccc2C#N)c2c1C(=O)NCC1(CCOCC1)C2` [Example 25, 3-(3-ethyl-4-oxo-spiro[6,8-dihydro-5H-pyrazolo[4,3-c]azepine-7,4′-tetrahydropyran]-1-yl)propyl 2-cyanobenzoate] here?
Answer: The IC50 was less than 100 nM.

Question: For `CCc1nn(C[C@@H](C)COC(=O)c2ccc(OC)c(Cl)c2)c2c1C(=O)NCC1(CCOCC1)C2` [Example 206, [(2R)-3-(3-ethyl-4-oxo-spiro[6,8-dihydro-5H-pyrazolo[4,3-c]azepine-7,4′-tetrahydropyran]-1-yl)-2-methyl-propyl] 3-chloro-4-methoxy-benzoate], which IC50 is on record?
Answer: Its IC50 is less than 100 nM.

Question: For `CCc1nn(C[C@@H](C)COC(=O)c2ccc(Cl)cc2C(F)(F)F)c2c1C(=O)NCC1(CCOCC1)C2` [Example 236, [(2R)-3-(3-ethyl-4-oxo-spiro[6,8-dihydro-5H-pyrazolo[4,3-c]azepine-7,4′-tetrahydropyran]-1-yl)-2-methyl-propyl] 4-chloro-2-(trifluoromethyl)benzoate], which IC50 is on record?
Answer: The IC50 was less than 100 nM.

Question: `CCc1nn(C[C@@H](C)COC(=O)c2cccc(C(F)(F)F)c2C)c2c1C(=O)NCC1(CCOCC1)C2` [Example 217, [(2R)-3-(3-ethyl-4-oxo-spiro[6,8-dihydro-5H-pyrazolo[4,3-c]azepine-7,4′-tetrahydropyran]-1-yl)-2-methyl-propyl] 2-methyl-3-(trifluoromethyl)benzoate] was tested. Which IC50 did it give?
Answer: Its IC50 is less than 100 nM.

Question: `CCc1nn(CCCOC(=O)C2CCC(OC)CC2)c2c1C(=O)NCC1(CCOCC1)C2` (centres unmarked) [Example 48, 3-(3-ethyl-4-oxo-spiro[6,8-dihydro-5H-pyrazolo[4,3-c]azepine-7,4′-tetrahydropyran]-1-yl)propyl 4-methoxycyclohexane-carboxylate] was tested. Which IC50 did it give?
Answer: The IC50 was 100 to 500 nM.

Question: How did the IC50 turn out when `CCc1nn(C[C@@H](C)COC(=O)c2c(F)cccc2Cl)c2c1C(=O)NCC1(CCOCC1)C2` [Example 203, [(2R)-3-(3-ethyl-4-oxo-spiro[6,8-dihydro-5H-pyrazolo[4,3-c]azepine-7,4′-tetrahydropyran]-1-yl)-2-methyl-propyl] 2-chloro-6-fluoro-benzoate] was run?
Answer: The IC50 was less than 100 nM.

Same assay, conditions: read-out: PDE4 IC50 range

Question: How did the IC50 turn out when `CCc1nn(CC(C)(C)COC(=O)c2ccc(C(N)=O)cc2)c2c1C(=O)NCC1(CCOCC1)C2` [Example 328, [3-(3-ethyl-4-oxo-spiro[6,8-dihydro-5H-pyrazolo[4,3-c]azepine-7,4′-tetrahydropyran]-1-yl)-2,2-dimethyl-propyl] 4-carbamoylbenzoate] was run?
Answer: The IC50 was less than 100 nM.

Question: With `CCc1nn(CC(C)(C)COC(=O)c2ccc(C#N)cc2)c2c1C(=O)NCC1(CCOCC1)C2` [Example 288, [3-(3-ethyl-4-oxo-spiro[6,8-dihydro-5H-pyrazolo[4,3-c]azepine-7,4′-tetrahydropyran]-1-yl)-2,2-dimethyl-propyl] 4-cyanobenzoate] as the compound, how does the IC50 read?
Answer: The IC50 was less than 100 nM.

Question: How did the IC50 turn out when `CCc1nn(CC(C)(C)COC(=O)c2cc(C(F)(F)F)ccc2Cl)c2c1C(=O)NCC1(CCOCC1)C2` [Example 315, [3-(3-ethyl-4-oxo-spiro[6,8-dihydro-5H-pyrazolo[4,3-c]azepine-7,4′-tetrahydropyran]-1-yl)-2,2-dimethyl-propyl] 2-chloro-5-(trifluoromethyl)benzoate] was run?
Answer: Its IC50 is less than 100 nM.

Question: With `CCc1nn(C[C@@H](C)COC(=O)c2cccc(C(=O)N3CCNCC3)c2)c2c1C(=O)NCC1(CCOCC1)C2` [Example 270, [(2R)-3-(3-ethyl-4-oxo-spiro[6,8-dihydro-5H-pyrazolo[4,3-c]azepine-7,4′-tetrahydropyran]-1-yl)-2-methyl-propyl] 3-(piperazine-1-carbonyl)benzoate] as the compound, how does the IC50 read?
Answer: Its IC50 is less than 100 nM.

Question: Which IC50 does the source give for `CCc1nn(CCCCOC(=O)c2ccc(F)cc2)c2c1C(=O)NCC1(CCOCC1)C2` [Example 366, 4-(3-ethyl-4-oxo-spiro[6,8-dihydro-5H-pyrazolo[4,3-c]azepine-7,4′-tetrahydropyran]-1-yl)butyl 4-fluorobenzoate] here?
Answer: The IC50 was less than 100 nM.

Question: `CCc1nn(CC(C)(C)COC(=O)c2cccc(C(=O)N3CCNCC3)c2)c2c1C(=O)NCC1(CCOCC1)C2` [Example 346, [3-(3-ethyl-4-oxo-spiro[6,8-dihydro-5H-pyrazolo[4,3-c]azepine-7,4′-tetrahydropyran]-1-yl)-2,2-dimethyl-propyl] 3-(piperazine-1-carbonyl)benzoate] was tested. Which IC50 did it give?
Answer: The IC50 was less than 100 nM.

Question: With `CCc1nn(CC(C)(C)COC(=O)c2cccc(S(N)(=O)=O)c2)c2c1C(=O)NCC1(CCOCC1)C2` [Example 308, [3-(3-ethyl-4-oxo-spiro[6,8-dihydro-5H-pyrazolo[4,3-c]azepine-7,4′-tetrahydropyran]-1-yl)-2,2-dimethyl-propyl] 3-sulfamoylbenzoate] as the compound, how does the IC50 read?
Answer: Its IC50 is less than 100 nM.

Question: How did the IC50 turn out when `CCc1nn(C[C@@H](C)COC(=O)c2cccc(C(=O)NC(C)C)c2)c2c1C(=O)NCC1(CCOCC1)C2` [Example 267, [(2R)-3-(3-ethyl-4-oxo-spiro[6,8-dihydro-5H-pyrazolo[4,3-c]azepine-7,4′-tetrahydropyran]-1-yl)-2-methyl-propyl] 3-(isopropylcarbamoyl)benzoate] was run?
Answer: The IC50 was less than 100 nM.

Question: For `CCc1nn(CC(C)(C)COC(=O)c2ccccc2F)c2c1C(=O)NCC1(CCOCC1)C2` [Example 286, [3-(3-ethyl-4-oxo-spiro[6,8-dihydro-5H-pyrazolo[4,3-c]azepine-7,4′-tetrahydropyran]-1-yl)-2,2-dimethyl-propyl] 2-fluorobenzoate], which IC50 is on record?
Answer: Its IC50 is less than 100 nM.
